How the values were obtained:
[1] = tested on: Botryotinia fuckeliana (Botrytis cinerea); assay: Botryotinia fuckeliana (Botrytis cinerea) / liquid culture (gray mould); type: cell-based; details: Vogels broth, 24° C., 3-4 days after application, read-out: control of Botryotinia fuckeliana (inhibition of growth, photometric)
Outline: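 Test compound was applied at 200 ppm in DMSO, then Vogels nutrient broth containing cryo-stored B. cinerea conidia was added. Photometric growth-inhibition reading followed after 3-4 days at 24 °C.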

[2] = tested on: Blumeria graminis f. Sp. Tritici (Erysiphe graminis f. Sp. Tritici); assay: Blumeria graminis f. sp. tritici / wheat / leaf disc preventative (powdery mildew on wheat); type: in vivo; details: foliar, wheat leaf segments cv. Kanzler, inoculated 1 day after application, assessed 6-8 days after application, read-out: control of Blumeria graminis (percent disease control compared to untreated)
Protocol: Blumeria graminis f. Sp. Tritici (Erysiphe graminis f. Sp. Tritici)/Wheat/Leaf Disc Preventative (Powdery Mildew on Wheat):
Wheat leaf segments cv. Kanzler were placed on agar in a 24-well plate and sprayed with the formulated test compound diluted in water at an application rate of 200 ppm. The leaf disks were inoculated by shaking powdery mildew infected plants above the test plates 1 day after application. The inoculated leaf disks were incubated at 20° C. and 60% relative humidity under a light regime of 24 h darkness followed by 12 h/12 h (dark/light) in a climate chamber and the activity of a compound was assessed as percent disease control compared to untreated when an appropriate level of disease damage appears on untreated check leaf segments (6-8 days after application). The following compounds gave at least 80% control of Blumeria graminis at 200 ppm when compared to untreated control leaf disks under the same conditions, which show extensive disease development: 2, 13, 23, 50, 59, 61, 67, 75, 85, 86, 89, 90, 93, 102, 103, 107, 134, 136, 137, 138, 139, 141, 145, 151, 153, 154, 163, 173, 174

[3] = tested on: Pyrenophora teres; assay: Pyrenophora teres / barley / leaf disc preventative (net blotch); type: in vivo; details: foliar, barley leaf segments cv Hasso, inoculated two days after application, assessed 5-7 days after application, read-out: control of Pyrenophora teres (disease control compared to untreated)
Outline: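 Preventative leaf-disc test: 200 ppm spray, then spore inoculation after two days on barley cv Hasso segments. Incubation 20 °C, 65% relative humidity, 12 h light/12 h dark; efficacy rated against untreated checks at 5-7 days post-application.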

[4] = tested on: Fusarium graminearum, syn. Gibberella zeae; assay: whole plant or invertebrate; type: in vivo; details: in Triticum aestivum, 144 h, read-out: control of Gibberella zeae (preventative fungicidal activity)
[5] = tested on: Gaeumannomyces graminis; assay: Gaeumannomyces graminis / liquid culture (take-all of cereals); type: cell-based; details: PDB, 24° C., 4-5 days after application, read-out: control of Gaeumannomyces graminis (inhibition of growth, photometric)
Outline: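 Growth inhibition, measured by photometry 4-5 days post-application at 24 °C, of fungal mycelial fragments in PDB broth. Test compound applied as DMSO solution at 200 ppm.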

[6] = tested on: Mycosphaerella graminicola (Septoria tritici); assay: Mycosphaerella graminicola (Septoria tritici) / liquid culture (Septoria blotch); type: cell-based; details: Zymoseptoria tritici, PDB, 24° C., 4-5 days after application, read-out: control of Mycosphaerella graminicola (inhibition of growth, photometric)
Outline: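 Growth inhibition was read photometrically after 4–5 days at 24 °C. The test compound was applied at 200 ppm from DMSO solution, then PDB broth seeded with conidia taken straight from cryogenic storage was added.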

[7] = tested on: Puccinia recondita f. sp. Tritici; assay: Puccinia recondita f. sp. tritici / wheat / leaf disc preventative (brown rust); type: in vivo; details: foliar, wheat leaf segments cv Kanzler, inoculated 1 day after application, assessed 7-9 days after application, read-out: control of Puccinia recondita f. sp. Tritici (percent disease control compared to untreated)
Outline: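 Preventative test: percent disease control relative to untreated leaf segments was assessed 7-9 days post-application. Wheat (cv Kanzler) leaf discs were treated at 200 ppm and spore-inoculated 1 day afterwards. Discs were held at 19° C and 75% relative humidity under a 12/12 h light cycle.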

[8] = tested on: Puccinia recondita f. sp. Tritici; assay: Puccinia recondita f. sp. tritici / wheat / leaf disc curative (brown rust); type: in vivo; details: foliar, wheat leaf segments cv Kanzler, applied 1 day after inoculation, assessed 6-8 days after application, read-out: control of Puccinia recondita f. sp. Tritici (percent disease control compared to untreated)
Protocol: Puccinia recondita f. Sp. Tritici/Wheat/Leaf Disc Curative (Brown Rust): Wheat leaf segments cv Kanzler were placed on agar in 24-well plates. The leaf segments were inoculated with a spore suspension of the fungus. The plates were stored in darkness at 19° C. and 75% relative humidity. The formulated test compound diluted in water was applied at an application rate of 200 ppm 1 day after inoculation. […] Tritici at 200 ppm when compared to untreated control leaf disks under the same conditions, which show extensive disease development: 2, 13, 16, 23, 30, 61, 75, 89, 103, 173, 174

[9] = tested on: Thanatephorus cucumeris (Rhizoctonia solani); assay: Thanatephorus cucumeris (Rhizoctonia solani) / liquid culture (foot rot, damping-off); type: cell-based; details: PDB, 24° C., 3-4 days after application, read-out: control of Thanatephorus cucumeris (inhibition of growth, photometric)
Outline: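 At 200 ppm, compounds in DMSO were combined with fresh liquid-culture mycelia in PDB and kept at 24° C; photometric measurement of growth inhibition after 3-4 days.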

[10] = tested on: Phaeosphaeria nodorum (Septoria nodorum); assay: Phaeosphaeria nodorum (Septoria nodorum) / wheat / leaf disc preventative (glume blotch); type: in vivo; details: Parastagonospora nodorum, foliar, wheat leaf segments cv Kanzler, inoculated 2 days after application, assessed 5-7 days after application, read-out: control of Phaeosphaeria nodorum (percent disease control compared to untreated)
Outline: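 Wheat leaf segments (cv Kanzler) on agar sprayed with compound at 200 ppm, inoculated with spores 2 days later. Incubated at 20° C., 75% relative humidity, 12/12 h light/dark; percent disease control versus untreated scored 5-7 days after application.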

[11] = tested on: Monographella nivalis (Microdochium nivale); assay: Monographella nivalis (Microdochium nivale) / liquid culture (foot rot cereals); type: cell-based; details: PDB, 24° C., 4-5 days after application, read-out: control of Monographella nivalis (inhibition of growth, photometric)
Outline: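 Cryostored conidia in potato dextrose broth were added to test compound dispensed from DMSO at 200 ppm. Plates were kept at 24° C, and growth inhibition was read photometrically 4-5 days after application.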

[12] = tested on: Glomerella lagenarium (Colletotrichum lagenarium); assay: Glomerella lagenarium (Colletotrichum lagenarium) / liquid culture (anthracnose); type: cell-based; details: Colletotrichum orbiculare, PDB, 24° C., 3-4 days after application, read-out: control of Glomerella lagenarium (inhibition of growth, photometric)
Outline: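 Test compound, delivered in DMSO at an application rate of 200 ppm, was combined with spore-containing PDB. Photometric growth-inhibition measurement followed 3-4 days of incubation at 24° C.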

[13] = tested on: Fusarium culmorum; assay: microbe, parasite or virus in culture; type: cell-based; details: read-out: control of Fusarium culmorum (inhibition of growth, photometric)
[14] = tested on: Mycosphaerella arachidis (Cercospora arachidicola); assay: Mycosphaerella arachidis (Cercospora arachidicola) / liquid culture (early leaf spot); type: cell-based; details: PDB, 24° C., 4-5 days after application, read-out: control of Mycosphaerella arachidis (inhibition of growth, photometric)
Outline: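 Conidia suspended in potato dextrose broth and added to test compound from DMSO solution at 200 ppm. Incubated at 24 °C; growth inhibition read photometrically 4-5 days after application.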

[15] = tested on: Sclerotinia sclerotiorum; assay: Sclerotinia sclerotiorum liquid culture (cottony rot / white mold); type: cell-based; details: PDB, 24° C., 3-4 days after application, read-out: control of Sclerotinia sclerotiorum (inhibition of growth, photometric)
Outline: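 Mycelia fragments of Sclerotinia sclerotiorum in potato dextrose broth were added to compound in DMSO. Cultures incubated at 24° C; growth inhibition determined photometrically 3-4 days after application.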

[16] = tested on: Plasmopara viticola; assay: Plasmopara viticola / grape / leaf disc preventative; type: in vivo; details: foliar, grape vine leaf disks, inoculated 1 day after application, assessed 6-8 days after application, read-out: control of Plasmopara viticola (percent disease control compared to untreated)
[17] = tested on: Pythium ultimum; assay: Pythium ultimum / liquid culture (seedling damping off); type: cell-based; details: Globisporangium ultimum, potato dextrose broth, 24° C., 2-3 days after application, read-out: control of Pythium ultimum (inhibition of growth, photometric)
Outline: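 Test compound in DMSO at 200 ppm was incubated with mycelia fragments and oospores in potato dextrose broth at 24 °C. Growth inhibition was read photometrically 2-3 days after application.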

Nc1ncnn1-c1nc2cnccc2n1C1CCCCC1 [Compound 2, 2-(1-cyclohexylimidazo[4,5-c]pyridin-2-yl)-1,2,4-triazol-3-amine]
≥ 80%: inhibition at 20 ppm [1] | pest or weed control at 200 ppm [2] | pest or weed control at 200 ppm [3] | pest or weed control at 20 ppm [4] | inhibition at 20 ppm [5] | inhibition at 20 ppm [6] | pest or weed control at 200 ppm [7] | pest or weed control at 200 ppm [8] | inhibition at 20 ppm [9]

CCn1c(-n2ncnc2N)nc2cncc(-c3cnn(C)c3)c21 [Compound 61, 2-[1-ethyl-7-(1-methylpyrazol-4-yl)imidazo[4,5-c]pyridin-2-yl]-1,2,4-triazol-3-amine]
≥ 80%: inhibition at 20 ppm [1] | pest or weed control at 200 ppm [2] | pest or weed control at 200 ppm [3] | pest or weed control at 200 ppm [10] | inhibition at 20 ppm [6] | pest or weed control at 200 ppm [7] | pest or weed control at 200 ppm [8] | inhibition at 20 ppm [9]

CCn1c(-n2ncnc2N)nc2cncc(-c3cccnc3Cl)c21 [Compound 103, 2-[7-(2-chloropyridin-3-yl)-1-ethylimidazo[4,5-c]pyridin-2-yl]-1,2,4-triazol-3-amine]
≥ 80%: inhibition at 20 ppm [11] | inhibition at 20 ppm [1] | inhibition at 20 ppm [12] | pest or weed control at 200 ppm [2] | pest or weed control at 200 ppm [3] | pest or weed control at 200 ppm [10] | inhibition at 20 ppm [5] | inhibition at 20 ppm [6] | pest or weed control at 200 ppm [7] | pest or weed control at 200 ppm [8] | inhibition at 20 ppm [9]

CCn1c(-n2ncnc2N)nc2cncc(-c3ccc(Cl)cc3F)c21 [Compound 98, 2-[7-(4-chloro-2-fluorophenyl)-1-ethylimidazo[4,5-c]pyridin-2-yl]-1,2,4-triazol-3-amine]
≥ 80%: inhibition at 20 ppm [11] | inhibition at 20 ppm [13] | inhibition at 20 ppm [1] | inhibition at 20 ppm [12] | inhibition at 20 ppm [14] | pest or weed control at 200 ppm [3] | pest or weed control at 200 ppm [10] | pest or weed control at 20 ppm [4] | inhibition at 20 ppm [5] | inhibition at 20 ppm [6] | pest or weed control at 200 ppm [7] | inhibition at 20 ppm [9] | inhibition at 20 ppm [15]

CCn1c(-n2ncnc2N)nc2cncc(/C(C)=N\OC/C=C/Cl)c21 [Compound 149]
≥ 80%: inhibition at 20 ppm [11] | pest or weed control at 200 ppm [16] | inhibition at 20 ppm [13] | inhibition at 20 ppm [1] | inhibition at 20 ppm [12] | inhibition at 20 ppm [17] | inhibition at 20 ppm [14] | pest or weed control at 200 ppm [3] | pest or weed control at 200 ppm [10] | pest or weed control at 20 ppm [4] | inhibition at 20 ppm [6] | pest or weed control at 200 ppm [7] | inhibition at 20 ppm [9] | inhibition at 20 ppm [15]

— US9512120B2, “Microbicidally active imidazopyridine derivatives” (Syngenta Participations AG, priority 2013, dated 2016)
